According to patent publication US6348488B1, “Remedies for motor dysfunction and GAPDH expression inhibitors” (Ono Pharmaceutical Co., Ltd., priority 1998, dated 2002):

Legend:
[1] = system: cerebellar granule cells (CGC); assay: cells; assay type: cell-based; details: for Age-induced apoptosis of CGC: added at 7 DIV, agent 0.03 μM, THA 10 μM
Method: A) Preparation of primary culture cerebellar granule cells (CGC)
According to the method by Ishitani et al., CGC was prepared as follows (Ishitani et al., J. Neurochem., 66:928-35, 1996).
Cerebellum was excised from an 8-day old Sprague-Dawley rat and cut to 0.4 mm square cubes using Mcllawin tissue chopper. Further, the cubes were digested at 37° C. for 15 minutes in a 0.025% trypsin-containing Krebs phosphate buffer (KPB).
After the reaction was stopped with KPB containing 0.008% soybean trypsin inhibitor and 0.0016% deoxyribonuclease I, the digested cubes were triturated in KPB containing 0.01% deoxyribonuclease I and 0.05% soybean trypsin inhibitor using a convergent Pasteur pipette to obtain dispersed CGC.
The cells were suspended in a basal modified Eagle's medium (BME) containing 10% fetal calf serum (FCS), 2 mM glutamine, 50 μg/ml gentamycin and 25 mM potassium chloride (KCl), and seeded on a plastic dish (35 mm) coated with poly-L-lysine (molecular weight: 3-7×10^4, 100 μg/ml) to a cell density of 2.1×10^5 live cells/cm^2.
Under 5% carbon dioxide (CO2), culture was started at 37° C. and after 18 to 24 hours cytosine arabinofuranoside (10 μM) for preventing the growth of non-neuronal cells was added and culture was continued. At 7 DIV (days in vitro), various chemicals were added and thereafter, culture was continued in the same medium.
B) Measurement of viability by live double staining method with FDA-PI
CGC after desired culture days was washed twice with 2 ml of Locke's solution (154 mM NaCl, 5.6 mM KCl, 2.3 mM CaCl2, 1.2 mM MgSO4, 5 mM HEPES, 5.6 mM glucose, 3.6 mM NaHCO3, pH 7.4) and then stained with 0.0008% fluorescein diacetate (FDA) and 0.0002% propidium iodide (PI) for 3 to 5 minutes.
Fluorescent observation was performed using epi-illuminated fluorescent microscope (Olympus, IMT2-RFL) equipped with a dichroic mirror for B excitement (IMT2-DMB), an auxiliary excitation filter (EY455) and an auxiliary filter (O530).
FDA was decomposed by an esterase in the living cells to emit fluorescence (fluorescein) from green to yellow fluorescence, on the other hand PI permeates through dead cell membranes and binds with DNA to emit from red to brown fluorescence, so that the both fluorescences can be observed simultaneously using the above-described fluorescence microscopy.
Viability was calculated according to the following formula.
Viability=[FDA stained cell number/(FDA stained cell number+PI stained cell number)]×100

spinal cord impact model = assay: Motor dysfunction inhibitory action in spinal cord impact model (treadmill maximum walking distance); assay type: in vivo, rat
Method: A male Wistar rat (about 250 g) was placed in a supine position under anesthesia with sodium pentobarbital (40 mg/kg, i.p.). After partial laminectomy to remove the fifth lumber spine, a silicon rubber (height: 1 mm, length: 4 mm, and width: 1.25 mm) was inserted in the fourth and sixth lumber spines.
After the operation, the maximum walking distance was measured using a treadmill on Day 1, 2, 3, 5, 7 and 14.
That is, the treadmill was run at a speed starting from 10 m/min, with an increment at a rate of 5 m/min every 3 minutes thereafter until the time when the animal dropped from the walking belt and could not walk any further. The walking distance was calculated from the time when the animal could not walk any further.

[2] = system: spinal cord injury crush lesion model; assay: Motor dysfunction in spinal cord injury (crush lesion model, modified Tarlov scale); assay type: in vivo, rat; details: 10 mg/kg, versus vehicle control group
Method: A male Wistar rat (about 250 to 300 g) was subject to dorsal median incision and laminectomy to remove thoracic spine (T11) under anesthesia with sodium pentobarbital and then the dura mater was exposed. A metal pole (diameter: 3 mm, length: 40 mm, weight: 3.8 g) was placed on the dura mater and a load of 10 g was dropped from a height of 10 cm through a cylinder to prepare a crush lesion model. Thereafter, the muscle layer and skin were sutured. The behavioral deficit was evaluated using modifications of Tarlov scale. That is, the evaluation was made based on mean scores of both hind legs according to the following scores. Neurologic scores: 0 Complete paralysis of hind legs 1 Slight movements of hind legs were observed. 2 Movements of hind legs were clear but the body weight could not be supported so that autonomic movement was impossible. 3 The animal crept and could not support the body weight. 4 The animal could support the body weight when standing or walking. However, clearly disabled. 5 Posture and walking ability are close to those of normal animals.

GAPDH mRNA = GAPDH mRNA expression in CGC, Northern blotting analysis; assay type: cell-based, rat; details: addition at 7 DIV; measured at 15 DIV (CGC)
Method: Preparation of the primary culture cerebellar granule cells (CGC) was performed in accordance with Test Example 3 A).
Then, according to the method of Fukamauchi et al., total RNA was extracted from CGC of the desired culture day number. The total RNA (9 μg/lane) was electrophoresed on 1.2% agarose formaldehyde gel and transferred to a nylon membrane (Hybond-N, Amersham). Thereafter, it was subjected to prehybridization at 42° C. for 3 to 5 hours in a solution containing 5×Denhardt's solution (0.1% Ficol 400, 0.1% polyvinyl pyrrolidone, 0.1% BSA), 50% formamide, 50 μg/ml salmon testis DNA, and 0.5% SDS (Fukamauchi et al., J. Neurochem., 56:716-9, 1991, Sunaga et al., Neurosci. Lett., 163:27-30, 1993).
Using a Multi prime DNA labelling kit (Amersham), human GAPDH cDNA probe (Clontech, Palo Alto, Calif., U.S.A.) labeled with [α-^32P] deoxycytidine 5′-triphosphate (3,000 Ci/mm pl) was thermally denatured and thereafter added to the prehybridization solution, followed by hybridization at 42° C. for 24 hours.
The membrane was fully washed at 60° C. for 10 minutes in 0.1% SDS containing 0.1×SSC ([…], pH 7.0), exposed on a high-sensitivity X-ray film (IPSO 3000, Fuji) to prepare an autoradiogram. Quantitative analysis was performed using a CCD type image analyzer (BIOPROFIL, M&S).

GAPDH protein = GAPDH protein expression in CGC, SDS-PAGE and Western blotting analyses; assay type: cell-based, rat; details: process of age-induced cell death
Method: The cultured cells of the desired culture day number were washed three times with 2 ml of PBS and then stripped off by a rubber policeman and the cells were recovered by centrifugation at 188×G at 4° C. for 5 minutes. The cells were resuspended in ice-cooled 50 mM Tris-HCl buffer (pH 7.4) and the cell membranes were destroyed by sonication.
The homogenate was centrifuged at 2×10^5×G at 4° C. for 30 minutes to obtain a precipitate (insoluble fraction (pellet)), which was resuspended in the same buffer and then was subjected to quantitative determination of protein together with the supernatant (soluble “supernatant”). […]
The gel after the electrophoresis was stained with 0.1% Coomassie blue. The quantitative analysis of the amount of 38-kDa protein band was performed using a CCD type image analyzer (BIOPROFIL, N&S). […]
The PDVF membrane after the transcription was treated in 0.5% skim milk containing TBS-T (20 mM Tris, 137 mM NaCl, 0.05% Tween 20, pH 7.4) for 60 minutes to effect blocking, and then was allowed to react at room temperature for 60 minutes in TBS-T containing primary antibody (anti-rabbit GAPDH monoclonal antibody diluted to 1:15000). […] After washing the PVDF membrane, quantitative determination of GAPDH protein was performed on a high-sensitivity X-ray film using a detector for chemiluminescence (Renaissance TM, NEN).

[3] = Acute toxicity, rat, intravenous administration; assay type: in vivo
[4] = system: 30 types or more of surface receptors inclusive of overactivated NMDA receptors; assay: Influence on surface receptors in age-induced apoptosis of CGC

Structure (SMILES) | Inhibition of the cell death ([1]; 1 μM) | Inhibition of the cell death ([1]; 10 μM) | Age-induced apoptosis of CGC [1] | Maximum Walking Distance (spinal cord impact model; 1 mg/Kg, Day 2 after administration) [m] | Maximum Walking Distance (spinal cord impact model; 1 mg/Kg, Day 4 after administration) [m] | Maximum Walking Distance (spinal cord impact model; 1 mg/Kg, Day 11 after administration) [m] | Maximum Walking Distance (spinal cord impact model; 10 mg/Kg orally, Day 2 after administration) [m] | Maximum Walking Distance (spinal cord impact model; 10 mg/Kg orally, Day 4 after administration) [m] | Maximum Walking Distance (spinal cord impact model; 10 mg/Kg orally, Day 11 after administration (day 14 after operation)) [m] | Maximum Walking Distance (spinal cord impact model; 10 mg/Kg orally, Day 11 after administration (day 14 after operation), listed as N-[3-[N-(4-chlorophenylmethyl)carbamoyl]propanoyl]-L-prolinal) [m] | Influence on the autonomic movement and sensitivity to pain (spinal cord impact model; rat, spinal cord impact model) | Degree of recovery of motor dysfunction (neurologic score) ([2]; day 9 up to day 21 of the operation) | Change in body weight after the operation [2] | viability at 0.03 µM ([1]; Rattus norvegicus, 0.03 μM added at 7 DIV, at 17 DIV) [%] | Concentration exhibiting a protective action to neurons ([1]; at 17 DIV) | Increase in GAPDH mRNA (GAPDH mRNA) | Increase in the 38-kDa protein (GAPDH) in cell membrane fraction (GAPDH protein) | Acute toxicity (LD50) [3] [mg/kg body weight] | Influence on surface receptors [4]
Nc1c2c(nc3ccccc13)CCCC2 [THA, 9-amino-1,2,3,4-tetrahydroacridine, reference compound] | about 30% | almost completely | inhibited | – | – | – | – | – | – | – | – | – | – | – | – | – | – | – | –
O=C[C@@H]1CCCN1C(=O)CCC(=O)NCc1ccc(Cl)cc1 [Agent of invention, N-[3-[N-(4-chlorophenylmethyl)carbamoyl]propanoyl]-L-prolinal] | – | – | inhibited | 237 ± 49 | 414 ± 58 | 347 ± 77 | 329 ± 15 | 455 ± 34 | 408 ± 30 | 408±30 | no influence | tended to be superior as compared with the vehicle control group | tended to be superior to the vehicle control group | 92 ± 4.4 | several | completely inhibited | inhibited the increase | 200 | no influence
